# Assay results published in patent US8455688B2, “HDAC inhibitors” (Lixte Biotechnology, Inc., priority 2007, dated 2013).
# Like-named read-outs stand apart in the source and are kept apart here.
# What was measured:
# C. albicans = experiment: Broth dilution antifungal susceptibility testing, C. albicans; format: cell-based, Candida albicans; conditions: Candida albicans, 50% reduction in turbidity, read-out: minimum inhibitory concentration (MIC)
# Experimental: (§1) A total of 23 isolates were tested to include 3 Candida albicans, 3 Candida glabrata, 3 Cryptococcus neoformans, 3 Aspergillus fumigatus, 3 Rhizopus oryzae, 3, Fusarium solani, 3 Pseudallescheria boydii, and 2 […]. All isolates were clinical isolates submitted to the Fungus Testing Laboratory for evaluation. Antifungal susceptibility testing was accomplished according to the methods outlined in the National Committee for Clinical Laboratory Standards, M-27A2, Reference Method for Broth Dilution Antifungal Susceptibility Testing of Yeasts; Approved Standard, and M38-A “Reference Method for Broth Dilution Antifungal Susceptibility Testing of Conidium-Forming Filamentous Fungi; Approved Standard”. This includes testing in RPMI-1640 with glutamine and without bicarbonate, an inoculum size of 0.5-2.5×10^3 for yeasts or […] for moulds, and incubation at 35° C. for 24 and 48 hours. […] Drug concentrations were 0.125-64 μg/ml. A 10 mg portion of each powder was weighed out and added to 1 ml of 100% DMSO for compound 205. The resulting concentration of […] was diluted to a working concentration of 6400 μg/ml for compound 205 in 100% DMSO. All subsequent dilutions were also made using the respective diluents. Final testing concentrations ranged from 0.125-64 μg/ml. The NCCLS recommended medium RPMI-1640 (Hardy Diagnostics, Santa Monica, Calif.) was utilized as the test medium. All isolates in this study were clinical isolates received in the Fungus Testing Laboratory for standard antifungal susceptibility testing and/or identification. Isolates, which were not sent for identification, were confirmed to assure testing integrity. A total of 23 were tested to include 3 Candida albicans, 3 Candida glabrata, 3 Cryptococcus neoformans, 3 Aspergillus fumigatus, 3 Rhizopus oryzae, 3, Fusarium solani, 3 Pseudallescheria boydii, and 2 […]. Minimum inhibitory concentrations (MIC) were determined at the first 24-hour interval where growth could be determined in the drug-free control tube.
# C. glabrata = experiment: Broth dilution antifungal susceptibility testing, C. glabrata; format: cell-based, Candida glabrata; conditions: Nakaseomyces glabratus, 50% reduction in turbidity, read-out: minimum inhibitory concentration (MIC)
# Experimental: as §1
# C. neoformans = experiment: Broth dilution antifungal susceptibility testing, C. neoformans; format: cell-based; conditions: Cryptococcus neoformans, 50% reduction in turbidity, read-out: minimum inhibitory concentration (MIC)
# Experimental: as §1
# R. arrhizus = experiment: Broth dilution antifungal susceptibility testing, R. arrhizus; format: cell-based, Rhizopus oryzae; conditions: Rhizopus arrhizus, 80% inhibition, read-out: minimum inhibitory concentration (MIC)
# Experimental: as §1
# F. solani = experiment: Broth dilution antifungal susceptibility testing, F. solani; format: cell-based; conditions: Fusarium solani, 80% inhibition, read-out: minimum inhibitory concentration (MIC)
# Experimental: as §1
# S. apiospermum = experiment: Broth dilution antifungal susceptibility testing, S. apiospermum; format: cell-based, Pseudallescheria boydii; conditions: Scedosporium apiospermum, 80% inhibition, read-out: minimum inhibitory concentration (MIC)
# Experimental: as §1
# A. fumigatus = experiment: Broth dilution antifungal susceptibility testing, A. fumigatus; format: cell-based, Aspergillus fumigatus; conditions: Aspergillus fumigatus, 80% inhibition, read-out: minimum inhibitory concentration (MIC)
# Experimental: as §1
# T. rubrum = experiment: Broth dilution antifungal susceptibility testing, T. rubrum; format: cell-based, Trichophyton rubrum; conditions: Trichophyton rubrum, 80% inhibition, read-out: minimum inhibitory concentration (MIC)
# Experimental: as §1
smiles,measurement,setting,value
COc1ccc(S)c(C(=O)NCCCCCC(=O)Nc2ccccc2)c1 [Compound 211],MIC,"C. albicans; 24 h, isolate 07-3006, 24 hours",> 64 µg/mL
same,MIC,"C. albicans; 24 h, isolate 07-3011, 24 hours",> 64 µg/mL
same,MIC,"C. albicans; 24 h, isolate 07-3012, 24 hours",> 64 µg/mL
same,MIC,"C. albicans; 48 h, isolate 07-3006, 48 hours",> 64 µg/mL
same,MIC,"C. albicans; 48 h, isolate 07-3011, 48 hours",> 64 µg/mL
same,MIC,"C. albicans; 48 h, isolate 07-3012, 48 hours",> 64 µg/mL
same,MIC,"C. glabrata; 24 h, isolate 07-2964, 24 hours",> 64 µg/mL
same,MIC,"C. glabrata; 24 h, isolate 07-2965, 24 hours",> 64 µg/mL
same,MIC,"C. glabrata; 24 h, isolate 07-3013, 24 hours",> 64 µg/mL
same,MIC,"C. glabrata; 48 h, isolate 07-2964, 48 hours",> 64 µg/mL
same,MIC,"C. glabrata; 48 h, isolate 07-2965, 48 hours",> 64 µg/mL
same,MIC,"C. glabrata; 48 h, isolate 07-3013, 48 hours",> 64 µg/mL
same,MIC,"C. neoformans; 24 h, isolate 07-2665, 24 hours",8 µg/mL
same,MIC,"C. neoformans; 24 h, isolate 07-2737, 24 hours",8 µg/mL
same,MIC,"C. neoformans; 24 h, isolate 07-2829, 24 hours",8 µg/mL
same,MIC,"C. neoformans; 48 h, isolate 07-2665, 48 hours",16 µg/mL
same,MIC,"C. neoformans; 48 h, isolate 07-2737, 48 hours",16 µg/mL
same,MIC,"C. neoformans; 48 h, isolate 07-2829, 48 hours",16 µg/mL
same,MIC,"R. arrhizus; 24 h, isolate 07-1870, 24 hours",4 µg/mL
same,MIC,"R. arrhizus; 24 h, isolate 07-2044, 24 hours",4 µg/mL
same,MIC,"R. arrhizus; 24 h, isolate 07-2078, 24 hours",8 µg/mL
same,MIC,"R. arrhizus; 48 h, isolate 07-1870, 48 hours",> 64 µg/mL
same,MIC,"R. arrhizus; 48 h, isolate 07-2044, 48 hours",> 64 µg/mL
same,MIC,"R. arrhizus; 48 h, isolate 07-2078, 48 hours",> 64 µg/mL
same,MIC,"F. solani; 24 h, isolate 07-1399, 24 hours",4 µg/mL
same,MIC,"F. solani; 24 h, isolate 07-1755, 24 hours",4 µg/mL
same,MIC,"F. solani; 24 h, isolate 07-1867, 24 hours",2 µg/mL
same,MIC,"F. solani; 48 h, isolate 07-1399, 48 hours",8 µg/mL
same,MIC,"F. solani; 48 h, isolate 07-1755, 48 hours",8 µg/mL
same,MIC,"F. solani; 48 h, isolate 07-1867, 48 hours",8 µg/mL
same,MIC,"S. apiospermum; 24 h, isolate 07-1333, 24 hours",2 µg/mL
same,MIC,"S. apiospermum; 24 h, isolate 07-1502, 24 hours",2 µg/mL
same,MIC,"S. apiospermum; 24 h, isolate 07-1601, 24 hours",2 µg/mL
same,MIC,"S. apiospermum; 48 h, isolate 07-1333, 48 hours",4 µg/mL
same,MIC,"S. apiospermum; 48 h, isolate 07-1502, 48 hours",4 µg/mL
same,MIC,"S. apiospermum; 48 h, isolate 07-1601, 48 hours",4 µg/mL
same,MIC,"A. fumigatus; 24 h, isolate 05-388, 24 hours",2 µg/mL
same,MIC,"A. fumigatus; 24 h, isolate 06-4126, 24 hours",2 µg/mL
same,MIC,"A. fumigatus; 24 h, isolate 07-2039, 24 hours",2 µg/mL
same,MIC,"A. fumigatus; 48 h, isolate 05-388, 48 hours",> 64 µg/mL
same,MIC,"A. fumigatus; 48 h, isolate 06-4126, 48 hours",> 64 µg/mL
same,MIC,"A. fumigatus; 48 h, isolate 07-2039, 48 hours",> 64 µg/mL
same,MIC,"T. rubrum; 24 h, isolate 07-1743, 24 hours",≤ 0.125 µg/mL
same,MIC,"T. rubrum; 24 h, isolate 07-2055, 24 hours",≤ 0.125 µg/mL
same,MIC,"T. rubrum; 48 h, isolate 07-1743, 48 hours",≤ 0.125 µg/mL
same,MIC,"T. rubrum; 48 h, isolate 07-2055, 48 hours",≤ 0.125 µg/mL
